Source: patent publication US20210386367A1, “DEVICES AND SYSTEMS FOR GASTROINTESTINAL MICROBIOME DETECTION AND MANIPULATION” (Progenity, Inc., priority 2018, published 2021)
In brackets after ≈: the same amount, converted by molar mass. Several values for one entry are separate records, joined by “and”; a condition that tells them apart may be missing. Equal entries are not always repeated. Where two headings read alike, the source gives them in different places.

How the values were obtained:
[1] = system: Bacteroides fragilis clinical isolates; experiment: MIC distribution against clinical isolates; assay type: cell-based
How it was run: (§1)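 MIC is the lowest agent concentration preventing growth, determined by broth or agar dilution with serial compound dilutions and incubation under appropriate conditions (e.g., overnight at 37° C.). MIC90 is the concentration inhibiting ≥90% of isolates in the test population.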

Bacteroides non fragilis = experiment: Agar dilution MIC, 29 clinical isolates; assay type: cell-based, Bacteroides spp.; conditions: for Mode: modal MIC
[2] = system: Streptococcus agalactiae clinical isolates; experiment: MIC distribution against clinical isolates; assay type: cell-based
How it was run: as §1

SIBO Bacteria = conditions: cited from earlier work
[3] = system: E. coli, Streptococcus spp., and Bacteroides spp. isolates; assay type: cell-based; conditions: for MPC values: across the evaluated isolates
Description: Initial values of the MIC were determined by agar dilution in accordance with guidelines from the Clinical and Laboratory Standards Institute (CLSI; (1) “Methods for Dilution Antimicrobial Susceptibility Tests for Bacteria That Grow Aerobically; Approved Standard; 11th ed.,” CLSI standard M07, 2018; (2) “Methods for Antimicrobial Susceptibility Testing of Anaerobic Bacteria; Approved Standard—Eighth Edition,” CLSI document M11-A8, 2012.).
If there were no colonies on the antibiotic selection plates, the spontaneous mutation frequency was reported as less than the frequency observed with one colony to indicate that the spontaneous mutation frequency was less than the limit of detection (one CFU). […] The mutation prevention concentration (MPC) was reported as the lowest concentration for which no mutants were selected.

B. ovatus MMX 3503 = experiment: Broth microdilution MIC (time-kill study); assay type: cell-based, Bacteroides ovatus
[4] = MIC 0.5 μg/mL, 30 B. fragilis isolates
[5] = MIC 1 μg/mL, 30 B. fragilis isolates
[6] = MIC 2 μg/mL, 30 B. fragilis isolates
[7] = MIC […], 30 B. fragilis isolates
[8] = 29 Bacteroides non-fragilis clinical isolates
[9] = MIC 8 μg/mL, 30 B. fragilis isolates
[10] = MIC 16 μg/mL, 30 B. fragilis isolates
[11] = MIC 32 μg/mL, 30 B. fragilis isolates
[12] = MIC 64 μg/mL, 30 B. fragilis isolates
[13] = MIC 0.03 μg/mL, 20 S. agalactiae isolates
[14] = MIC 0.06 μg/mL, 20 S. agalactiae isolates
[15] = MIC […], 20 S. agalactiae isolates
[16] = MIC >8 μg/mL, 30 B. fragilis isolates
[17] = MIC 0.015 μg/mL, 20 S. agalactiae isolates
[18] = B. ovatus MMX 3504 (so in the source)
[19] = MIC >32 μg/mL, 30 B. fragilis isolates
[20] = MIC 1 μg/mL, 20 S. agalactiae isolates

Compound: Cc1ncc([N+](=O)[O-])n1CCO [MTZ]
- Cumulative percentage of isolates inhibited at MIC [1, 4]: 30.0%
- Number of test isolates at MIC [1, 4]: 7
- Cumulative percentage of isolates inhibited at MIC [1, 5]: 76.7%
- Number of test isolates at MIC [1, 5]: 14
- Cumulative percentage of isolates inhibited at MIC [1, 6]: 100.0%
- Number of test isolates at MIC [1, 6]: 7
- Cumulative percentage of isolates inhibited at MIC [1, 7]: 6.7%
- Number of test isolates at MIC [1, 7]: 2
- % I (Bacteroides non fragilis; [8]): 3%
- % S (Bacteroides non fragilis; [8]): 97%
- MIC50 (Bacteroides non fragilis; [8]): 0.5 mg/L (≈ 2.92 µM)
- MIC90 (Bacteroides non fragilis; [8]): 2 mg/L (≈ 11.7 µM)
- Mode (Bacteroides non fragilis; [8]): 0.5 µg/mL

Compound: CO/N=C(\C(=O)N[C@@H]1C(=O)N2C(C(=O)O)=C(CSc3nc(=O)c(=O)[nH]n3C)CS[C@H]12)c1csc(N)n1 [ceftriaxone]
- Cumulative percentage of isolates inhibited at MIC [1, 9]: 10.0%
- Number of test isolates at MIC [1, 9]: 3
- Cumulative percentage of isolates inhibited at MIC [1, 10]: 40.0%
- Number of test isolates at MIC [1, 10]: 9
- Cumulative percentage of isolates inhibited at MIC [1, 11]: 66.7%
- Number of test isolates at MIC [1, 11]: 8
- Cumulative percentage of isolates inhibited at MIC [1, 12]: 73.3%
- Number of test isolates at MIC [1, 12]: 2
- Cumulative percentage of isolates inhibited at MIC ([1]; listed as CTR): 76.7% and 100.0%
- Cumulative percentage of isolates inhibited at MIC [2, 13]: 25.0%
- Number of test isolates at MIC [2, 13]: 5
- Cumulative percentage of isolates inhibited at MIC [2, 14]: 90.0%
- Number of test isolates at MIC [2, 14]: 1.3
- Cumulative percentage of isolates inhibited at MIC [2, 15]: 100.0%
- Number of test isolates at MIC [2, 15]: 2
- activity against SIBO organisms (SIBO Bacteria): active against SIBO organisms
- isolates resistant (Bacteroides non fragilis): 72%
- isolates with intermediate resistance (Bacteroides non fragilis): 3%
- % I (Bacteroides non fragilis; [8]): 3%
- % R (Bacteroides non fragilis; [8]): 72%
- % S (Bacteroides non fragilis; [8]): 24%
- MIC50 (Bacteroides non fragilis; [8]): >128 mg/L
- MIC90 (Bacteroides non fragilis; [8]): >128 mg/L
- MIC range (Bacteroides non fragilis; [8]): 1 to 128 mg/L
- MIC50 (Bacteroides non fragilis; Bacteroides, read-out: MIC50): > 128 mg/L
- MIC90 (Bacteroides non fragilis; Bacteroides, read-out: MIC90): > 128 mg/L
- Mode (Bacteroides non fragilis; [8]): >128 µg/mL
- overall MPC values ([3]; remaining isolates (E. coli, Streptococcus spp.)): 0.12 to 0.25 µg/mL
- MIC (B. ovatus MMX 3503; Bacteroides ovatus, MMX3503, B. ovatus MMX 3504 (so in the source)): > 128 mg/L
- MIC (B. ovatus MMX 3503; Bacteroides ovatus, MMX3503, broth microdilution): > 128 mg/L
- MIC (B. ovatus MMX 3503; broth microdilution): 128 mg/L (≈ 231 µM)

Compound: C[C@@H](O)[C@H]1C(=O)N2C(C(=O)O)=C(S[C@@H]3CN[C@H](C(=O)N(C)C)C3)[C@H](C)[C@H]12 [meropenem]
- Cumulative percentage of isolates inhibited at MIC [1, 5]: 80.0%
- Number of test isolates at MIC [1, 5]: 4
- Cumulative percentage of isolates inhibited at MIC [1, 9]: 83.3%
- Number of test isolates at MIC [1, 9]: 1
- Cumulative percentage of isolates inhibited at MIC [1, 16]: 100.0%
- Number of test isolates at MIC [1, 16]: 5
- Cumulative percentage of isolates inhibited at MIC [2, 17]: 20.0%
- Number of test isolates at MIC [2, 17]: 4
- Cumulative percentage of isolates inhibited at MIC [2, 13]: 95.0%
- Number of test isolates at MIC [2, 13]: 15
- Cumulative percentage of isolates inhibited at MIC [2, 14]: 100.0%
- Number of test isolates at MIC [2, 14]: 1
- activity against SIBO organisms (SIBO Bacteria): active against SIBO organisms
- isolates with intermediate resistance (Bacteroides non fragilis): Three
- % I (Bacteroides non fragilis; [8]): 3%
- % S (Bacteroides non fragilis; [8]): 97%
- MIC50 (Bacteroides non fragilis; [8]): 0.5 mg/L (≈ 1.3 µM)
- MIC90 (Bacteroides non fragilis; [8]): 2 mg/L (≈ 5.22 µM)
- MIC50 (Bacteroides non fragilis; Bacteroides, read-out: MIC50): 0.5 mg/L (≈ 1.3 µM)
- MIC90 (Bacteroides non fragilis; Bacteroides, read-out: MIC90): 2 mg/L (≈ 5.22 µM)
- Mode (Bacteroides non fragilis; [8]): 0.5 µg/mL
- propensity for spontaneous resistance ([3]; SIBO pathogens in vitro): little propensity for resistance to develop spontaneously
- MPC values [3]: equivalent to 4× the MIC
- MIC (B. ovatus MMX 3503; [18]): 0.12 mg/L (≈ 0.313 µM)
- MIC (B. ovatus MMX 3503; Bacteroides ovatus, MMX3503, broth microdilution, read-out: MIC): 0.12 mg/L (≈ 0.313 µM)

Compound: COc1c(N2C[C@@H]3CCCN[C@@H]3C2)c(F)cc2c(=O)c(C(=O)O)cn(C3CC3)c12 [moxifloxacin]
- Cumulative percentage of isolates inhibited at MIC [2, 14]: 15.0%
- Number of test isolates at MIC [2, 14]: 3

Compound: CO[C@H]1/C=C/O[C@@]2(C)Oc3c(C)c(O)c4c(O)c(c5c(nc6cc(C)ccn65)c4c3C2=O)NC(=O)/C(C)=C\C=C\[C@H](C)[C@H](O)[C@@H](C)[C@@H](O)[C@@H](C)[C@H](OC(C)=O)[C@@H]1C [rifaximin]
- Number of test isolates at MIC [1, 5]: 1
- Cumulative percentage of isolates inhibited at MIC [1, 19]: 100.0%
- Number of test isolates at MIC [1, 19]: 1
- Cumulative percentage of isolates inhibited at MIC ([2]; listed as RFX): 75.0% and 100.0%
- MIC50 (Bacteroides non fragilis): 0.12 mg/L (≈ 0.153 µM)
- MIC90 (Bacteroides non fragilis): 0.5 mg/L (≈ 0.636 µM)
- relative activity among drugs tested (Bacteroides non fragilis): most active
- MIC50 (Bacteroides non fragilis; [8]): 0.12 mg/L (≈ 0.153 µM)
- MIC90 (Bacteroides non fragilis; [8]): 0.5 mg/L (≈ 0.636 µM)
- MIC range (Bacteroides non fragilis; [8]): 0.03 to 0.5 mg/L
- Mode (Bacteroides non fragilis; [8]): 0.12 µg/mL
- MPC values [3]: In no instance was an MPC able to be reported
- MIC (B. ovatus MMX 3503; [18]): 2 mg/L (≈ 2.54 µM)
- MIC (B. ovatus MMX 3503; broth microdilution): 1 mg/L (≈ 1.27 µM)

Compound: CN[C@H](CC(C)C)C(=O)N[C@H]1C(=O)N[C@@H](CC(N)=O)C(=O)N[C@H]2C(=O)N[C@H]3C(=O)N[C@H](C(=O)N[C@H](C(=O)O)c4cc(O)cc(O)c4-c4cc3ccc4O)[C@H](O)c3ccc(c(Cl)c3)Oc3cc2cc(c3O[C@@H]2O[C@H](CO)[C@@H](O)[C@H](O)[C@H]2O[C@H]2C[C@](C)(N)[C@H](O)[C@H](C)O2)Oc2ccc(cc2Cl)[C@H]1O [vancomycin, Vancomycin]
- Cumulative percentage of isolates inhibited at MIC [2, 20]: 100.0%
- Number of test isolates at MIC [2, 20]: 1
- MIC (B. ovatus MMX 3503; Bacteroides ovatus, MMX3503, B. ovatus MMX 3504 (so in the source), read-out: MIC): > 16 mg/L

Compound: piperacillin/tazobactam [piperacillin-tazobactam]
- activity against SIBO organisms (SIBO Bacteria): active against SIBO organisms
- MIC (B. ovatus MMX 3503; [18]): >16 mg/L
